Results as given in US8809306B2, “Combination andolast/glucocorticoids” (Rottapharm S.p.A., priority 2006, dated 2014).

What was measured:
[1] = test system: eosinophils in the bronchoalveolar lavage (BAL) fluids; test: Sephadex-induced eosinophilia: eosinophil counts in the BAL fluid
[2] = test system: airway hyperresponsiveness induced by Sephadex G100 particles; test: Sephadex G100-induced lung hyperresponsiveness in rats (bronchoconstriction by Ach); settings: G-100 rats
[3] = test system: human B lymphocytes from allergic donors; settings: cited from earlier work
[4] = test system: T lymphocytes (Th2) production of IL-5; settings: preliminary in-vivo data, atopic asthmatic patients; cited from earlier work
[5] = test system: airway hyperresponsiveness; settings: inhalation, 2 to 20 mg, mild-moderate asthmatic patients; AMP, exercise, UNDW, CAH; cited from earlier work
[6] = test system: airway response following specific antigen challenge; settings: asthmatic patients; cited from earlier work

Compound | counts of eosinophils in the BAL fluid ([1]; Prednisolone 1 mg/kg, Sephadex control 2.6×10^6, normal rats about 1×10^4) | eosinophilia in the BAL fluids, in words ([1]; Prednisolone 10 mg/kg) | Protective Effect (%) ([2]; Prednisolone 1 mg/kg orally) | Protective Effect (%) ([2]; Prednisolone 10 mg/kg orally) | effect on IL-4 dependent IgE synthesis [3] | effect on Th2 production of IL-5 [4] | airway hyperresponsiveness to specific and non-specific bronchostimulation challenges [5] | early and late airway response following specific antigen challenge [6] | counts of eosinophils in the BAL fluid ([1]; Andolast 3 mg/kg, Sephadex control 2.6×10^6) | Protective Effect (%) ([2]; Andolast 3 mg/kg i.m., calculated from Ach ED50) | Ach ED50 ([2]; Andolast 3 mg/kg i.m., dose of Ach i.v. producing 50% response) [mg/kg]
C[C@]12C=CC(=O)C=C1CC[C@@H]1[C@@H]2[C@@H](O)C[C@@]2(C)[C@H]1CC[C@]2(O)C(=O)CO [Prednisolone] | 2×10^6 | totally suppressed | 11.1 | 88.8 |  |  |  |  |  |  | 
O=C(Nc1ccc(-c2nnn[nH]2)cc1)c1ccc(-c2nnn[nH]2)cc1 [Andolast, N-4-(5-tetrazolyl)-phenyl-4-(5-tetrazolyl)-benzamide] |  |  |  |  | potent inhibitory effect | inhibitory effect | prevents in a dose-dependent fashion | completely prevents | 1.75×10^6 | 33.3 | 0.20
